Source: patent publication US20260014118A1, “VITAMINS FOR USE IN IMPROVING GUT HEALTH” (DSM IP ASSETS B.V., priority 2022, published 2026)

System: Bifidobacterium animalis ssp. lactis DSM 32269
Test: Short-term batch-fermentation (colonic incubation, M-SHIME colon model) with fecal inocula of six human donors; qPCR on groEL gene
Format: cell-based
Settings: 48 h colonic incubation; for levels of Bifidobacterium animalis ssp. lactis (DSM 32269 specific groEL gene copies) in the lumen environment, as compared to the respective control: average of six donors, co-supplemented with probiotic 1*10^9 CFU, vitamin B2 0.01667 g/L, vitamin C 0.333 g/L, vitamin D3 0.000025 g/L
Description: A short-term batch-fermentation experiment was carried out by ProDigest, consisting of a colonic incubation of a representative dose of a selected vitamin with a representative bacterial inoculum under simulated conditions for the proximal large intestine. In the current experiment, the bacterial inocula were derived from fresh fecal samples of six different healthy adult donors. Incubations were performed as described previously (Van den Abbeele, P.; Taminiau, B.; Pinheiro, I.; Duysburgh, C.; Jacobs, H.; Pijls, L.; Marzorati, M. Arabinoxylo-Oligosaccharides and Inulin Impact Inter-Individual Variation on Microbial Metabolism and Composition, Which Immunomodulates Human Cells. J. Agric. Food Chem. 2018, 66, 1121-1130). At the start of the short-term colonic incubation, fresh fecal material from six healthy human donors was collected and upon preparation of an anaerobic fecal slurry, this slurry was inoculated at 10 vol % in a SHIME nutritional medium containing basal nutrients containing 3.5 g/L K2HPO4, 10.9 g/L KH2PO4, 2 g/L NaHCO3(Chem-lab NV, Zedelgem, Belgium), 2 g/L yeast extract, 2 g/L peptone (Oxoid, Aalst, Belgium), 1 g/L mucin (Carl Roth, Karlsruhe, Germany), 0.5 g/L L-cysteine and 2 mL/L Tween80 (Sigma-Aldrich, Bornem, Belgium). All test ingredients (i.e., probiotic strain, vitamin B2, C, or D3) were also added to the SHIME medium. Furthermore, M-SHIME® technology was incorporated in the current experiment by adding mucin-covered microcosms (modeling the mucus of the colon) to the incubations as described previously (Van den Abbeele, P., et al. (2013). Butyrate-producing Clostridium cluster XIVa species specifically colonize mucins in an in vitro gut model. The ISME Journal 7 (5), 949-961). Incubations were performed for 48 h, at 37° C., under shaking (90 rpm) and anaerobic conditions.
In this study, the Bifidobacterium animalis ssp. lactis BB-12 equivalent Bifidobacterium animalis ssp. lactis DSM 32269 (Biocare Copenhagen) was added to the colon model containing the donor samples, alone or in combination with vitamin B2, C, or D (see Table 1). After 48 h of incubation, the abundance of the added strain was analyzed using primers that are specific for Bifidobacterium animalis ssp. lactis BB-12/Bifidobacterium animalis ssp. lactis DSM 32269. Experiments were performed in single repetition.
The Bifidobacterium animalis ssp. lactis BB-12 equivalent strain Bifidobacterium animalis ssp. lactis DSM 32269 was added to the SHIME medium as an overnight grown culture at a concentration of 1*10^9 CFU. The probiotic strain was either supplemented alone or in combination with vitamin B2, vitamin C or vitamin D3 (DSM). Vitamin B2, C, and D3 was added at a concentration of 0.01667 g/L, 0.333 g/L and 0.000025 g/L, respectively, which translates into a 10 mg, 200 mg, and […] dose, respectively, given that the colon volume is about 600 ml.
qPCR was performed on groEL gene (NCBI reference CP003497) to monitor the level of the supplemented Bifidobacterium animalis ssp. lactis DSM 32269 strain within the gut microbiome, as described previously (Junick et al. (2012), Quantification of Human Fecal Bifidobacterium Species by Use of Quantitative Real-Time PCR Analysis Targeting the groEL Gene). Samples were analyzed from the lumen and mucus environment following 48 h of incubation.
Statistical analysis was performed to investigate the average effect of the test products. For this purpose, the average over the six donors was calculated for each endpoint. […]

[1] = control = probiotic only, p<0.05

## Cc1cc2nc3c(=O)[nH]c(=O)nc-3n(C[C@H](O)[C@H](O)[C@H](O)CO)c2cc1C [vitamin B2, riboflavin]
[1]
  levels of Bifidobacterium animalis ssp. lactis (DSM 32269 specific groEL gene copies) in the lumen environment, as compared to the respective control: significantly increased
mucus, vitamin B2 0.01667 g/L co-supplemented with probiotic, control = probiotic only, p<0.05
  levels of Bifidobacterium animalis ssp. lactis in the mucus environment, as compared to the respective control: significantly increased
mucus, vitamin B2 0.01667 g/L co-supplemented with probiotic, versus probiotic only
  copies of the Bifidobacterium animalis ssp. lactis DSM 32269 specific groEL gene in the mucus environment, relative to control: around 6 times

## O=C1O[C@H]([C@@H](O)CO)C(O)=C1O [vitamin C, L-ascorbic acid]
[1]
  levels of Bifidobacterium animalis ssp. lactis (DSM 32269 specific groEL gene copies) in the lumen environment, as compared to the respective control: significantly increased

## C=C1CC[C@H](O)C/C1=C/C=C1\CCC[C@]2(C)[C@@H]([C@H](C)CCCC(C)C)CC[C@@H]12 [vitamin D, cholecalciferol]
[1]
  levels of Bifidobacterium animalis ssp. lactis (DSM 32269 specific groEL gene copies) in the lumen environment, as compared to the respective control: significantly increased
